Results reported in patent publication US20230151034A1 (COCRYSTAL PHARMA, INC., priority 2020, published 2023).
Read-outs that look alike come from different tables or passages of the source. Where a SMILES comes first, the peptide text is derived from it. [ ]: non-standard residue; d: D form. The star is where a group is joined. ξ: configuration not given here. ξαMeE = CC(N)(CCC(=O)O)C(=O)O; Nonanoyl = CCCCCCCCC(=O)*

Legend:
[1] = biological target: HuNV GGII.4 Norovirus protease (Norovirus GII.4 (human norovirus genogroup II genotype 4), UniProt P54634); experiment: Norovirus protease FRET assay (HuNV GGII.4); assay type: biochemical; settings: FRET protease assay, read-out: HuNV GGII.4 IC50
[2] = biological target: Norwalk GGI.1 Norovirus protease (Norovirus, UniProt Q83883); experiment: Noro-Norwalk FRET protease assay (Norwalk GGI.1); assay type: biochemical, Norwalk virus; settings: FRET protease assay, read-out: Norwalk GGI.1 IC50
Description: Viral protease assays: The antiviral activities of inhibitors were determined by FRET (Fluorescence Resonance Energy Transfer) assay. Purified viral protease was incubated with the protease substrate peptide (Edans-DFHLQ/GP-Dabcyl) and inhibitor, and IC50 values were subsequently determined by the fluorescence signals.
The Noro-Norwalk FRET protease assay was performed in 50 mM HEPES-Na pH 8, 50 mM NaCl, 0.4 mM EDTA, 4% glycerol, and 6 mM DTT. A self-quenching peptide substrate [5-FAM]-[…]-[TAMRA] was custom synthesized by Anaspec. Compounds were diluted in 3-fold serial dilutions to final concentrations of 200 μM to 10.2 nM. Noro protease was added to a final concentration of 1-7 μM, depending on the enzyme activity level, and the peptide substrate was added to a final concentration of 10 μM. The assay was incubated 90 minutes at 37° C. and read in a Perkin Elmer Envision with excitation at 473 nm and emission measurement at 519 nm.

SARS2 protease = SARS2 protease (Severe acute respiratory syndrome coronavirus 2, UniProt P0DTD1); experiment: SARS-CoV-2 protease inhibition assay (SARS2 FRET protease assay); assay type: biochemical; settings: Table E; SARS-CoV-2 protease inhibition; read-out: IC50
In short: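 SARS-CoV-2 protease (25 nM) was incubated for 30 min at 30 °C with 1.3 μM quenched 5-FAM/TAMRA peptide substrate and compound (3-fold dilutions, 20 μM–1.0 nM). The buffer was 20 mM HEPES-Na pH 7, 120 mM NaCl, 0.4 mM EDTA, 0.01% Triton, 5% glycerol and 4 mM DTT. Fluorescence was read at ex 473 and em 519 nm, and IC50 was derived.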

HuNV GGII.4 Norovirus protease, sequence (P54634 1009-1189): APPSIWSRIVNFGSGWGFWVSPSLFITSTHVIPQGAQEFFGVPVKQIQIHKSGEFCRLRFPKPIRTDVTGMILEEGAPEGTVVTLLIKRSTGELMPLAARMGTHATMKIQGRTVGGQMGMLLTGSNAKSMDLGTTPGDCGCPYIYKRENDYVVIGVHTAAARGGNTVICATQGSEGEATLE
Norwalk GGI.1 Norovirus protease, sequence (Q83883 1101-1281): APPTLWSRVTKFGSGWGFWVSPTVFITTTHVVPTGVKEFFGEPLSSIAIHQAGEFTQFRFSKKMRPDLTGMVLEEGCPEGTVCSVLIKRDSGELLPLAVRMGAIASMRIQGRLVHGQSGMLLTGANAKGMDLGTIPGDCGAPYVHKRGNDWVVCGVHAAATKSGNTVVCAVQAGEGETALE

For `CCOCCN(C)C(=O)CC[C@H](NC(=O)C(CC1CCCCC1)NC(=O)OCc1cccc(Cl)c1)C(O)P(=O)(OCC)OCC` (stereo in doubt) [Compound A12, 3-chlorobenzyl ((2S)-3-cyclohexyl-1-(((2S)-1-(diethoxyphosphoryl)-5-((2-ethoxyethyl)(methyl)amino)-1-hydroxy-5-oxopentan-2-yl)amino)-1-oxopropan-2-yl)carbamate], the IC50 ([1]; Table C) was > 200 µM, the IC50 ([2]; Table C) was 122 µM and the IC50 (SARS2 protease) was 5.4 µM.
In the case of `CN(CCc1cccc(Cl)c1)C(=O)CC[C@@H](C=O)NC(=O)[C@H](CC1CCCCC1)NC(=O)OCc1cccc(Cl)c1` (stereo in doubt) [Compound A33, 3-Chlorobenzyl ((S)-1-(((S)-5-((3-chlorophenethyl)(methyl)amino)-1,5-dioxopentan-2-yl)amino)-3-cyclohexyl-1-oxopropan-2-yl)carbamate], the IC50 ([1]; Table C) is reported as > 200 µM, the IC50 ([2]; Table C) is reported as 117 µM and the IC50 (SARS2 protease) is reported as > 200 µM.
`CN(CCc1ccccc1)C(=O)CC[C@@H](C=O)NC(=O)[C@H](CC1CCCCC1)NC(=O)OCc1cccc(Cl)c1` (stereo in doubt) [Compound A36, 3-chlorobenzyl ((S)-3-cyclohexyl-1-(((S)-5-(methyl(phenethyl)amino)-1,5-dioxopentan-2-yl)amino)-1-oxopropan-2-yl)carbamate] was tested, and the IC50 ([1]; Table C) was 26.9 µM, the IC50 ([2]; Table C) was 5.2 µM and the IC50 (SARS2 protease) was > 200 µM.
With `CCS(=O)(=O)NCCN(C)C(=O)CC[C@@H](C=O)NC(=O)[C@H](CC1CCCCC1)NC(=O)OCc1cccc(Cl)c1` (stereo in doubt) [Compound A38, 3-Chlorobenzyl ((S)-3-cyclohexyl-1-(((S)-5-((2-(ethylsulfonamido)ethyl)(methyl)amino)-1,5-dioxopentan-2-yl)amino)-1-oxopropan-2-yl)carbamate] the IC50 ([1]; Table C) was 30.6 µM, the IC50 ([2]; Table C) was 10.1 µM and the IC50 (SARS2 protease) was 36 µM.
For `CON(C)C(=O)[C@H](CCC(=O)N(C)CCc1ccccc1Cl)NC(=O)[C@H](CC1CCCCC1)NC(=O)OCc1cccc(Cl)c1` (stereo in doubt) [Compound A39, 3-Chlorobenzyl ((S)-1-(((S)-5-((2-chlorophenethyl)(methyl)amino)-1-(methoxy(methyl)amino)-1,5-dioxopentan-2-yl)amino)-3-cyclohexyl-1-oxopropan-2-yl)carbamate], the IC50 ([1]; Table C) was 100 µM, the IC50 ([2]; Table C) was 119 µM and the IC50 (SARS2 protease) was 5.3 µM.
With `CCOP(=O)(OCC)C(O)[C@H](CCC(=O)N(C)CCc1ccc(Cl)cc1)NC(=O)C(CC1CCCCC1)NC(=O)OCc1cccc(Cl)c1` (stereo in doubt) [Compound A40, 3-Chlorobenzyl ((2S)-1-(((2S)-5-((4-chlorophenethyl)(methyl)amino)-1-(diethoxyphosphoryl)-1-hydroxy-5-oxopentan-2-yl)amino)-3-cyclohexyl-1-oxopropan-2-yl)carbamate] the IC50 ([1]; Table C) was 199 µM, the IC50 ([2]; Table C) was 117 µM and the IC50 (SARS2 protease) was > 200 µM.
`CON(C)C(=O)[C@H](CCC(=O)N1CCCC(c2ccccc2)C1)NC(=O)[C@H](CC1CCCCC1)NC(=O)OCc1cccc(Cl)c1` (stereo in doubt) [Compound A43, 3-chlorobenzyl ((2S)-3-cyclohexyl-1-(((2S)-1-(methoxy(methyl)amino)-1,5-dioxo-5-(3-phenylpiperidin-1-yl)pentan-2-yl)amino)-1-oxopropan-2-yl)carbamate] was tested, and the IC50 ([1]; Table C) was > 200 µM, the IC50 ([2]; Table C) was 135 µM and the IC50 (SARS2 protease) was 185 µM.
In the case of `CCOC(=O)NCCN(C)C(=O)CC[C@@H](C=O)NC(=O)[C@H](CC1CCCCC1)NC(=O)OCc1cccc(Cl)c1` (stereo in doubt) [Compound A44, Ethyl ((5S,8S)-1-(3-chlorophenyl)-5-(cyclohexylmethyl)-8-formyl-12-methyl-3,6,11-trioxo-2-oxa-4,7,12-triazatetradecan-14-yl)carbamate], the IC50 ([1]; Table C) is reported as 28.6 µM, the IC50 ([2]; Table C) is reported as 10.7 µM and the IC50 (SARS2 protease) is reported as > 200 µM.
In the case of `O=C[C@H](CCC(=O)N1CCOC(c2ccccc2)C1)NC(=O)[C@H](CC1CCCCC1)NC(=O)OCc1cccc(Cl)c1` (stereo in doubt) [Compound A45, 3-Chlorobenzyl ((2S)-3-cyclohexyl-1-(((2S)-1,5-dioxo-5-(2-phenylmorpholino)pentan-2-yl)amino)-1-oxopropan-2-yl)carbamate], the IC50 ([1]; Table C) is reported as 18.8 µM, the IC50 ([2]; Table C) is reported as 11 µM and the IC50 (SARS2 protease) is reported as > 200 µM.
In the case of `CCNC(=O)OCCN(C)C(=O)CC[C@@H](C=O)NC(=O)[C@H](CC1CCCCC1)NC(=O)OCc1cccc(Cl)c1` (stereo in doubt) [Compound A46, 3-Chlorobenzyl ((12S, 15S)-16-cyclohexyl-12-formyl-8-methyl-4,9,14-trioxo-5-oxa-3,8,13-triazahexadecan-15-yl)carbamate], the IC50 ([1]; Table C) is reported as 28 µM, the IC50 ([2]; Table C) is reported as 8.6 µM and the IC50 (SARS2 protease) is reported as > 200 µM.
For `CN(CCc1ccc(Cl)cc1)C(=O)CC[C@@H](C=O)NC(=O)[C@H](CC1CCCCC1)NC(=O)OCc1cccc(Cl)c1` (stereo in doubt) [Compound A48, 3-Chlorobenzyl ((S)-1-(((S)-5-((4-chlorophenethyl)(methyl)amino)-1,5-dioxopentan-2-yl)amino)-3-cyclohexyl-1-oxopropan-2-yl)carbamate], the IC50 ([1]; Table C) was 63 µM, the IC50 ([2]; Table C) was 8.7 µM and the IC50 (SARS2 protease) was 31 µM.
For `CC(CN(C)C(=O)CC[C@@H](C=O)NC(=O)[C@H](CC1CCCCC1)NC(=O)OCc1cccc(Cl)c1)c1ccccc1` (stereo in doubt) [Compound A49, 3-Chlorobenzyl ((2S)-3-cyclohexyl-1-(((2S)-5-(methyl(2-phenylpropyl)amino)-1,5-dioxopentan-2-yl)amino)-1-oxopropan-2-yl)carbamate], the IC50 ([1]; Table C) was 76.7 µM, the IC50 ([2]; Table C) was 15 µM and the IC50 (SARS2 protease) was > 200 µM.
Molecule `O=C[C@H](CCC(=O)N1CCCC(c2ccccc2)C1)NC(=O)[C@H](CC1CCCCC1)NC(=O)OCc1cccc(Cl)c1` (stereo in doubt) [Compound A53, 3-Chlorobenzyl ((2S)-3-cyclohexyl-1-(((2S)-1,5-dioxo-5-(3-phenylpiperidin-1-yl)pentan-2-yl)amino)-1-oxopropan-2-yl)carbamate] has an IC50 ([1]; Table C) of 82.5 µM, an IC50 ([2]; Table C) of 6.7 µM and an IC50 (SARS2 protease) of 16.7 µM.
In the case of `CCN(CCc1ccccc1)C(=O)CC[C@@H](C=O)NC(=O)[C@H](CC1CCCCC1)NC(=O)OCc1cccc(Cl)c1` (stereo in doubt) [Compound A56, 3-Chlorobenzyl ((S)-3-cyclohexyl-1-(((S)-5-(ethyl(phenethyl)amino)-1,5-dioxopentan-2-yl)amino)-1-oxopropan-2-yl)carbamate], the IC50 ([1]; Table C) is reported as 106 µM, the IC50 ([2]; Table C) is reported as 9.3 µM and the IC50 (SARS2 protease) is reported as > 200 µM.
In the case of `CON(C)C(=O)C1CC(C(=O)N(C)C)CCCCCC(Cc2ccccc2)OC(=O)N[C@@H](CC(C)C)C(=O)N1` (stereo in doubt) [Compound B43, (4S,7S)-15-benzyl-4-isobutyl-N7-methoxy-N7,N9,N9-trimethyl-2,5-dioxo-1-oxa-3,6-diazacyclopentadecane-7,9-dicarboxamide], the IC50 ([1]; Table D) is reported as 105 µM, the IC50 ([2]; Table D) is reported as 105 µM and the IC50 (SARS2 protease) is reported as > 200 µM.
In the case of `CCCCCCCCC(=O)N[C@@H](CC(C)C)C(=O)NC(C)(C=O)CCC(=O)N(C)C` (stereo partly drawn) [Compound A1, N-((2S)-1-((5-(dimethylamino)-2-methyl-1,5-dioxopentan-2-yl)amino)-4-methyl-1-oxopentan-2-yl)nonanamide] (Nonanoyl-Leu-[ξαMeE](NMe2)-aldehyde), the IC50 ([1]; Table C) is reported as > 200 µM, the IC50 ([2]; Table C) is reported as > 200 µM and the IC50 (SARS2 protease) is reported as > 200 µM.
In the case of `CN1C(=O)CCC(NC(=O)[C@H](CC2CCCCC2)NC(=O)OCc2cccc(Cl)c2)C1O` (stereo partly drawn) [Compound A2, 3-chlorobenzyl ((2S)-3-cyclohexyl-1-((2-hydroxy-1-methyl-6-oxopiperidin-3-yl)amino)-1-oxopropan-2-yl)carbamate], the IC50 ([1]; Table C) is reported as 127 µM, the IC50 ([2]; Table C) is reported as 169 µM and the IC50 (SARS2 protease) is reported as > 200 µM.
`CN(C)C(=O)CC[C@@H](C=O)NC(=O)[C@H](CC1CCCCC1)NC(=O)OCc1cccc(Cl)c1` [Compound A6, 3-chlorobenzyl ((S)-3-cyclohexyl-1-(((S)-5-(dimethylamino)-1,5-dioxopentan-2-yl)amino)-1-oxopropan-2-yl)carbamate] was tested, and the IC50 ([1]; Table C) was 18.7 µM, the IC50 ([2]; Table C) was 2 µM and the IC50 (SARS2 protease) was > 200 µM.
`CCCCCN(C)C(=O)CC[C@@H](C=O)NC(=O)[C@H](CC1CCCCC1)NC(=O)OCc1cccc(Cl)c1` [Compound A7, 3-chlorobenzyl ((S)-3-cyclohexyl-1-(((S)-5-(methyl(pentyl)amino)-1,5-dioxopentan-2-yl)amino)-1-oxopropan-2-yl)carbamate] was tested, and the IC50 ([1]; Table C) was 11.1 µM, the IC50 ([2]; Table C) was 1.6 µM and the IC50 (SARS2 protease) was 3.2 µM.
For `CCCCCN(C)C(=O)CC[C@H](NC(=O)[C@H](CC1CCCCC1)NC(=O)OCc1cccc(Cl)c1)C(=O)N(C)OC` [Compound A8, 3-chlorobenzyl ((S)-3-cyclohexyl-1-(((S)-1-(methoxy (methyl)amino)-5-(methyl(pentyl)amino)-1,5-dioxopentan-2-yl)amino)-1-oxopropan-2-yl)carbamate], the IC50 ([1]; Table C) was > 200 µM, the IC50 ([2]; Table C) was > 200 µM and the IC50 (SARS2 protease) was 89.8 µM.
